Data reported in ChEMBL document CHEMBL5325432, “Systematic study of 1,2,3-triazolyl sterols for the development of new drugs against parasitic Neglected Tropical Diseases” (Eur J Med Chem, 2023).

Legend:
[1] = Cytotoxicity against African green monkey Vero cells incubated for 48 hrs; type: toxicity, cell-based; conditions: African green monkey (Chlorocebus sabaeus)
Trypanosoma cruzi = experiment: Antiparasitic activity against Trypanosoma cruzi epimastigotes assessed as parasite growth inhibition incubated for 14 days by Alamar blue assay; type: functional, organism-based; conditions: 336 h
Trypanosoma brucei = experiment: Antiparasitic activity against Trypanosoma brucei assessed as parasite growth inhibition incubated for 3 days by Alamar blue assay; type: functional, organism-based; conditions: 72 h
Leishmania donovani = experiment: Antileishmanial activity against Leishmania donovani S1 promastigotes assessed as parasite growth inhibition incubated for 72 hrs by Alamar blue assay; type: functional, organism-based; conditions: S1, 72 h
[2] = Selectivity index, ratio of IC50 for cytotoxicity against African green monkey Vero cells to IC50 for antiparasitic activity against Trypanosoma brucei assessed as parasite growth inhibition; type: toxicity, cell-based; conditions: read-out: Ratio IC50
[3] = Selectivity index, ratio of IC50 for cytotoxicity against African green monkey Vero cells to IC50 for antileishmanial activity against Leishmania donovani S1 promastigotes assessed as parasite growth inhibition; type: toxicity, cell-based; conditions: read-out: Ratio IC50
[4] = Selectivity index, ratio of IC50 for cytotoxicity against African green monkey Vero cells to IC50 for antiparasitic activity against Trypanosoma cruzi epimastigotes assessed as parasite growth inhibition; type: toxicity, cell-based; conditions: read-out: Ratio IC50

CC(=O)O[C@H]1CC[C@@]2(C)C(=CC[C@H]3[C@@H]4CC[C@H]([C@@H](C)NCc5cn(Cc6ccccc6)nn5)[C@@]4(C)CC[C@@H]32)C1
IC50 at 48 h [1]: > 7.16 µM
IC50 (Trypanosoma cruzi): > 10 µM
IC50 (Trypanosoma brucei): 1.15 µM
IC50 (Leishmania donovani): > 10 µM
selectivity ratio [2]: > 6.22

C[C@@H](NCc1cn(CCCc2ccccc2)nn1)[C@H]1CC[C@H]2[C@@H]3CC=C4C[C@@H](O)CC[C@]4(C)[C@H]3CC[C@]12C
selectivity ratio [3]: > 5
IC50 at 48 h [1]: > 9.42 µM
IC50 (Trypanosoma cruzi): 6.48 µM
IC50 (Trypanosoma brucei): 1.82 µM
selectivity ratio [4]: > 1.45
IC50 (Leishmania donovani): 1.94 µM
selectivity ratio [2]: > 5.18

C[C@]12CC[C@H]3[C@@H](CC=C4C[C@@H](O)CC[C@@]43C)[C@@H]1CC[C@@H]2[C@@](C)(O)CNCc1cn(CCCc2ccccc2)nn1
selectivity ratio [3]: > 8.77
IC50 at 48 h [1]: > 9.14 µM
IC50 (Trypanosoma cruzi): > 10 µM
IC50 (Trypanosoma brucei): > 10 µM
IC50 (Leishmania donovani): 1.04 µM

CC(=O)O[C@H]1CC[C@@]2(C)C(=CC[C@H]3[C@@H]4CC[C@H]([C@@H](C)NCc5cn(C/C=C(\C)CCC=C(C)C)nn5)[C@@]4(C)CC[C@@H]32)C1
selectivity ratio [3]: 0.84
IC50 at 48 h [1]: > 8.67 µM
IC50 (Trypanosoma cruzi): > 10 µM
IC50 (Trypanosoma brucei): 1.25 µM
IC50 (Leishmania donovani): 10.3 µM
selectivity ratio [2]: > 6.93

CCOC(=O)Cn1cc(CN[C@@H](C)[C@H]2CC[C@H]3[C@@H]4CC=C5C[C@@H](O)CC[C@]5(C)[C@H]4CC[C@]23C)nn1
selectivity ratio [3]: > 1.61
IC50 at 48 h [1]: > 10.3 µM
IC50 (Trypanosoma cruzi): > 10 µM
IC50 (Trypanosoma brucei): > 10 µM
IC50 (Leishmania donovani): 6.4 µM

C[C@]12CC[C@H]3[C@@H](CC=C4C[C@@H](O)CC[C@@]43C)[C@@H]1CC[C@@H]2[C@@](C)(O)Cn1cc(CCO)nn1
IC50 at 48 h [1]: > 11.3 µM
IC50 (Trypanosoma cruzi): > 10 µM
IC50 (Trypanosoma brucei): 1.78 µM
IC50 (Leishmania donovani): > 10 µM
selectivity ratio [2]: > 6.33

CCCCCCCCn1cc(CN[C@H](C)[C@H]2CC[C@H]3[C@@H]4CC=C5C[C@@H](O)CC[C@]5(C)[C@H]4CC[C@]23C)nn1
selectivity ratio [3]: > 3.85
IC50 at 48 h [1]: > 9.79 µM
IC50 (Trypanosoma cruzi): > 10 µM
IC50 (Trypanosoma brucei): 1.5 µM
IC50 (Leishmania donovani): 2.55 µM
selectivity ratio [2]: > 6.53

C[C@H](NCc1cn(CCCc2ccccc2)nn1)[C@H]1CC[C@H]2[C@@H]3CC=C4C[C@@H](O)CC[C@]4(C)[C@H]3CC[C@]12C
selectivity ratio [3]: > 7.14
IC50 at 48 h [1]: > 9.68 µM
IC50 (Trypanosoma cruzi): 2.22 µM
IC50 (Trypanosoma brucei): 1.43 µM
selectivity ratio [4]: > 4.36
IC50 (Leishmania donovani): 1.35 µM
selectivity ratio [2]: > 6.77

C[C@]12CC[C@H]3[C@@H](CC=C4C[C@@H](O)CC[C@@]43C)[C@@H]1CC[C@@H]2[C@@](C)(O)Cn1cc(CCCc2ccccc2)nn1
IC50 at 48 h [1]: > 9.66 µM
IC50 (Trypanosoma cruzi): > 10 µM
IC50 (Trypanosoma brucei): 2.27 µM
IC50 (Leishmania donovani): > 10 µM
selectivity ratio [2]: > 4.25

CC(C)=CCC/C(C)=C/Cn1cc(CN[C@@H](C)[C@H]2CC[C@H]3[C@@H]4CC=C5C[C@@H](O)CC[C@]5(C)[C@H]4CC[C@]23C)nn1
selectivity ratio [3]: > 5.56
IC50 at 48 h [1]: > 9.35 µM
IC50 (Trypanosoma cruzi): 3.17 µM
IC50 (Trypanosoma brucei): 0.64 µM
selectivity ratio [4]: > 2.95
IC50 (Leishmania donovani): 1.68 µM
selectivity ratio [2]: > 14.6

CCOC(=O)Cn1cc(CN[C@@H](C)[C@H]2CC[C@H]3[C@@H]4CC=C5C[C@@H](OC(C)=O)CC[C@]5(C)[C@H]4CC[C@]23C)nn1
selectivity ratio [3]: > 1.94
IC50 at 48 h [1]: > 9.49 µM
IC50 (Trypanosoma cruzi): 7.8 µM
IC50 (Trypanosoma brucei): 0.66 µM
selectivity ratio [4]: > 1.22
IC50 (Leishmania donovani): 4.9 µM
selectivity ratio [2]: > 14.4

CCCCCCCCn1cc(CN[C@@H](C)[C@H]2CC[C@H]3[C@@H]4CC=C5C[C@@H](OC(C)=O)CC[C@]5(C)[C@H]4CC[C@]23C)nn1
selectivity ratio [3]: > 1.15
IC50 at 48 h [1]: > 9.04 µM
IC50 (Trypanosoma cruzi): > 10 µM
IC50 (Trypanosoma brucei): 0.62 µM
IC50 (Leishmania donovani): 7.87 µM
selectivity ratio [2]: > 14.6

CC(=O)O[C@H]1CC[C@@]2(C)C(=CC[C@H]3[C@@H]4CC[C@H]([C@@H](C)NCc5cn(CCCc6ccccc6)nn5)[C@@]4(C)CC[C@@H]32)C1
IC50 at 48 h [1]: > 8.95 µM
IC50 (Trypanosoma cruzi): 4.5 µM
IC50 (Trypanosoma brucei): 0.2 µM
selectivity ratio [4]: > 1.99
IC50 (Leishmania donovani): > 10 µM
selectivity ratio [2]: > 44.7

CC(=O)O[C@H]1CC[C@@]2(C)C(=CC[C@H]3[C@@H]4CC[C@H]([C@H](C)NCc5cn(Cc6ccccc6)nn5)[C@@]4(C)CC[C@@H]32)C1
selectivity ratio [3]: > 3.7
IC50 at 48 h [1]: > 9.42 µM
IC50 (Trypanosoma cruzi): 2.55 µM
IC50 (Trypanosoma brucei): 0.2 µM
selectivity ratio [4]: > 3.69
IC50 (Leishmania donovani): 2.54 µM
selectivity ratio [2]: > 47.1

CC(=O)O[C@H]1CC[C@@]2(C)C(=CC[C@H]3[C@@H]4CC[C@H]([C@H](C)NCc5cn(CCCc6ccccc6)nn5)[C@@]4(C)CC[C@@H]32)C1
selectivity ratio [3]: > 2.99
IC50 at 48 h [1]: > 8.95 µM
IC50 (Trypanosoma cruzi): 6.3 µM
IC50 (Trypanosoma brucei): 0.2 µM
selectivity ratio [4]: > 1.42
IC50 (Leishmania donovani): 2.99 µM
selectivity ratio [2]: > 44.7

O=C(Cn1ccnc1[N+](=O)[O-])NCc1ccccc1 [BENZNIDAZOLE]
IC50 (Trypanosoma cruzi): 7.4 µM
selectivity ratio [4]: 1.9

C[C@]12CC[C@H]3[C@@H](CC=C4C[C@@H](O)CC[C@@]43C)[C@@H]1CC[C@@H]2[C@@](C)(O)Cn1cc(-c2ccccc2)nn1
IC50 at 48 h [1]: > 10.5 µM
IC50 (Trypanosoma cruzi): > 10 µM
IC50 (Trypanosoma brucei): > 10 µM
IC50 (Leishmania donovani): > 10 µM

C#CCNC[C@](C)(O)[C@H]1CC[C@H]2[C@@H]3CC=C4C[C@@H](O)CC[C@]4(C)[C@H]3CC[C@@]21C
IC50 at 48 h [1]: > 12.3 µM
IC50 (Trypanosoma cruzi): > 10 µM
IC50 (Trypanosoma brucei): 1.77 µM
IC50 (Leishmania donovani): > 10 µM
selectivity ratio [2]: > 6.95

C[C@@H](NCc1cn(Cc2ccccc2)nn1)[C@H]1CC[C@H]2[C@@H]3CC=C4C[C@@H](O)CC[C@]4(C)[C@H]3CC[C@]12C
selectivity ratio [3]: > 1.67
IC50 at 48 h [1]: > 10.2 µM
IC50 (Trypanosoma cruzi): 2.47 µM
IC50 (Trypanosoma brucei): 1.77 µM
selectivity ratio [4]: > 4.14
IC50 (Leishmania donovani): 6.14 µM
selectivity ratio [2]: > 5.78

CC1CS(=O)(=O)CCN1/N=C/c1ccc([N+](=O)[O-])o1 (stereo not given) [NIFURTIMOX]
selectivity ratio [4]: 15.2
selectivity ratio [2]: 18.8

CC(=O)O[C@H]1CC[C@@]2(C)C(=CC[C@H]3[C@@H]4CC[C@H]([C@H](C)NCc5cn(C/C=C(\C)CCC=C(C)C)nn5)[C@@]4(C)CC[C@@H]32)C1
selectivity ratio [3]: > 1.79
IC50 at 48 h [1]: > 8.67 µM
IC50 (Trypanosoma cruzi): > 10 µM
IC50 (Trypanosoma brucei): 0.63 µM
IC50 (Leishmania donovani): 4.83 µM
selectivity ratio [2]: > 13.8

CC(C)=CCC/C(C)=C/Cn1cc(CN[C@H](C)[C@H]2CC[C@H]3[C@@H]4CC=C5C[C@@H](O)CC[C@]5(C)[C@H]4CC[C@]23C)nn1
selectivity ratio [3]: > 8.2
IC50 at 48 h [1]: > 9.35 µM
IC50 (Trypanosoma cruzi): > 10 µM
IC50 (Trypanosoma brucei): 0.66 µM
IC50 (Leishmania donovani): 1.14 µM
selectivity ratio [2]: > 14.2

COC(=O)c1cn(C[C@](C)(O)[C@H]2CC[C@H]3[C@@H]4CC=C5C[C@@H](O)CC[C@]5(C)[C@H]4CC[C@@]32C)nn1
IC50 at 48 h [1]: > 10.6 µM
IC50 (Trypanosoma cruzi): > 10 µM
IC50 (Trypanosoma brucei): 8.28 µM
IC50 (Leishmania donovani): > 10 µM
selectivity ratio [2]: > 1.28

C#CCN[C@@H](C)[C@H]1CC[C@H]2[C@@H]3CC=C4C[C@@H](OC(C)=O)CC[C@]4(C)[C@H]3CC[C@]12C
IC50 at 48 h [1]: > 11.9 µM
IC50 (Trypanosoma cruzi): 8.88 µM
IC50 (Trypanosoma brucei): 1.8 µM
selectivity ratio [4]: > 1.31
IC50 (Leishmania donovani): > 10 µM
selectivity ratio [2]: > 6.44

CCOC(=O)Cn1cc(CN[C@H](C)[C@H]2CC[C@H]3[C@@H]4CC=C5C[C@@H](O)CC[C@]5(C)[C@H]4CC[C@]23C)nn1
selectivity ratio [3]: > 1.56
IC50 at 48 h [1]: > 10.3 µM
IC50 (Trypanosoma cruzi): > 10 µM
IC50 (Trypanosoma brucei): 6.5 µM
IC50 (Leishmania donovani): 6.6 µM
selectivity ratio [2]: > 1.59

CCOC(=O)Cn1cc(CN[C@H](C)[C@H]2CC[C@H]3[C@@H]4CC=C5C[C@@H](OC(C)=O)CC[C@]5(C)[C@H]4CC[C@]23C)nn1
IC50 at 48 h [1]: > 9.49 µM
IC50 (Trypanosoma cruzi): > 10 µM
IC50 (Trypanosoma brucei): 6.5 µM
IC50 (Leishmania donovani): > 10 µM
selectivity ratio [2]: > 1.46

C[C@]12CC[C@H]3[C@@H](CC=C4C[C@@H](O)CC[C@@]43C)[C@@H]1CC[C@@H]2[C@@](C)(O)CN=[N+]=[N-]
IC50 at 48 h [1]: > 12 µM
IC50 (Trypanosoma cruzi): > 10 µM
IC50 (Trypanosoma brucei): > 10 µM
IC50 (Leishmania donovani): > 10 µM

CCCCCCCCn1cc(CN[C@H](C)[C@H]2CC[C@H]3[C@@H]4CC=C5C[C@@H](OC(C)=O)CC[C@]5(C)[C@H]4CC[C@]23C)nn1
IC50 at 48 h [1]: > 9.04 µM
IC50 (Trypanosoma cruzi): > 10 µM
IC50 (Trypanosoma brucei): 1.98 µM
IC50 (Leishmania donovani): > 10 µM
selectivity ratio [2]: > 4.57

N=C(N)c1ccc(OCCCCCOc2ccc(C(=N)N)cc2)cc1 [PENTAMIDINE]
selectivity ratio [3]: 7.6

CCOC(=O)Cn1cc(CNC[C@](C)(O)[C@H]2CC[C@H]3[C@@H]4CC=C5C[C@@H](O)CC[C@]5(C)[C@H]4CC[C@@]32C)nn1
IC50 at 48 h [1]: > 9.71 µM
IC50 (Trypanosoma cruzi): > 10 µM
IC50 (Trypanosoma brucei): > 10 µM
IC50 (Leishmania donovani): > 10 µM

C#CCN[C@H](C)[C@H]1CC[C@H]2[C@@H]3CC=C4C[C@@H](OC(C)=O)CC[C@]4(C)[C@H]3CC[C@]12C
IC50 at 48 h [1]: > 11.9 µM
IC50 (Trypanosoma cruzi): > 10 µM
IC50 (Trypanosoma brucei): 5.03 µM
IC50 (Leishmania donovani): > 10 µM
selectivity ratio [2]: > 2.3

CCCCCc1cn(C[C@](C)(O)[C@H]2CC[C@H]3[C@@H]4CC=C5C[C@@H](O)CC[C@]5(C)[C@H]4CC[C@@]32C)nn1
IC50 at 48 h [1]: > 10.6 µM
IC50 (Trypanosoma cruzi): 6.33 µM
IC50 (Trypanosoma brucei): 0.18 µM
selectivity ratio [4]: > 1.68
IC50 (Leishmania donovani): > 10 µM
selectivity ratio [2]: > 59.8
